Measured values: ChEMBL document CHEMBL3045684, “Compatibility of traditional and novel acaricides with bumblebees (Bombus terrestris): a first laboratory assessment of toxicity and sublethal effects” (Pest Manag Sci, 2010)
Active and inactive are the calls of the source. The rule behind the calls is not given here.

Columns and labels:
Bombus terrestris [1] = experiment: Toxicity against worker Bombus terrestris (bumblebee) assessed as mortality at 3 mg a.i./l, po administered through sugar water for 11 weeks measured everyday for 3 days followed by once a week for 11 weeks; format: functional
Bombus terrestris [2] = experiment: Toxicity against worker Bombus terrestris (bumblebee) assessed as mortality at 3 mg a.i./l, po administered through pollen for 11 weeks measured everyday for 3 days followed by once a week for 11 weeks; format: functional
Bombus terrestris [3] = experiment: Contact toxicity against worker Bombus terrestris (bumblebee) assessed as mortality at 3 mg a.i./l applied on the dorsal thorax for 11 weeks measured everyday for 3 days followed by once a week for 11 weeks; format: functional
Bombus terrestris [4] = experiment: Toxicity against worker Bombus terrestris (bumblebee) assessed as reduction in reproduction at 3 mg a.i./l, po administered through pollen for 11 weeks measured once a week for 11 weeks; format: functional; set-up: scale not given: the % may be the effect or the level left
Bombus terrestris [5] = experiment: Toxicity against worker Bombus terrestris (bumblebee) assessed as reduction in reproduction at 3 mg a.i./l, po administered through sugar water for 11 weeks measured once a week for 11 weeks relative to control; format: functional, organism-based
Bombus terrestris [6] = experiment: Contact toxicity against worker Bombus terrestris (bumblebee) assessed as reduction in reproduction at 3 mg a.i./l applied on the dorsal thorax for 11 weeks measured once a week for 11 weeks relative to control; format: functional, organism-based
Bombus terrestris [7] = experiment: Toxicity against worker Bombus terrestris (bumblebee) assessed as mortality at 18 mg a.i./l, po administered through sugar water measured after 11 weeks; format: functional; conditions: 1848 h
Bombus terrestris [8] = experiment: Toxicity against worker Bombus terrestris (bumblebee) assessed as mortality at 18 mg a.i./l, po administered through sugar water measured after 7 weeks; format: functional; conditions: 1176 h
Bombus terrestris [9] = experiment: Toxicity against worker Bombus terrestris (bumblebee) assessed as mortality at 18 mg a.i./l, po administered through sugar water measured after 1 week; format: functional; conditions: 168 h
Bombus terrestris [10] = experiment: Contact toxicity against worker Bombus terrestris (bumblebee) assessed as mortality at 18 mg a.i./l applied on the dorsal thorax measured after 3 to 4 weeks; format: functional, organism-based
Bombus terrestris [11] = experiment: Toxicity against worker Bombus terrestris (bumblebee) assessed as mortality at 18 mg a.i./l, po administered through pollen for 11 weeks measured everyday for 3 days followed by once a week for 11 weeks; format: functional
Bombus terrestris [12] = experiment: Toxicity against worker Bombus terrestris (bumblebee) assessed as mortality at 18 mg a.i./l, po administered through sugar water measured after 9 weeks; format: functional; conditions: 1512 h
Bombus terrestris [13] = experiment: Toxicity against worker Bombus terrestris (bumblebee) assessed as mortality at 18 mg a.i./l, po administered through sugar water for 11 weeks measured everyday for 3 days followed by once a week for 11 weeks; format: functional
Bombus terrestris [14] = experiment: Contact toxicity against worker Bombus terrestris (bumblebee) assessed as mortality at 18 mg a.i./l applied on the dorsal thorax for 11 weeks measured everyday for 3 days followed by once a week for 11 weeks; format: functional
Bombus terrestris [15] = experiment: Toxicity against po dosed worker Bombus terrestris (bumblebee) administered through sugar water for 11 weeks measured everyday for 3 days followed by once a week for 11 weeks; format: functional
Aphidius colemani = experiment: Contact toxicity against Aphidius colemani assessed as mortality at 8.5 mg a.i./l; format: functional
Apis mellifera [16] = experiment: Toxicity against po dosed Apis mellifera (honey bee) assessed per bee after 24 hr; format: functional
Apis mellifera [17] = experiment: Contact toxicity against Apis mellifera (honey bee) assessed per bee after 24 hr; format: functional
Bombus terrestris [18] = experiment: Toxicity against worker Bombus terrestris (bumblebee) assessed as mortality at 18 mg a.i./l, po administered through pollen measured after 7 weeks; format: functional; conditions: 1176 h
Bombus terrestris [19] = experiment: Toxicity against worker Bombus terrestris (bumblebee) assessed as mortality at 18 mg a.i./l, po administered through pollen measured after 3 weeks; format: functional; conditions: 504 h
Bombus terrestris [20] = experiment: Toxicity against worker Bombus terrestris (bumblebee) assessed as reduction in reproduction at 18 mg a.i./l, po administered through pollen for 11 weeks measured once a week for 11 weeks; format: functional, organism-based
Bombus terrestris [21] = experiment: Contact toxicity against worker Bombus terrestris (bumblebee) assessed as reduction in reproduction at 18 mg a.i./l applied on the dorsal thorax for 11 weeks measured once a week for 11 weeks relative to control; format: functional, organism-based
Bombus terrestris [22] = experiment: Toxicity against worker Bombus terrestris (bumblebee) assessed as mortality at 400 mg a.i./l, po administered through sugar water measured up to 1 week; format: functional, organism-based
Bombus terrestris [23] = experiment: Toxicity against worker Bombus terrestris (bumblebee) assessed as mortality at 400 mg a.i./l, po administered through sugar water for 11 weeks measured everyday for 3 days followed by once a week for 11 weeks; format: functional
Bombus terrestris [24] = experiment: Toxicity against worker Bombus terrestris (bumblebee) assessed as mortality at 400 mg a.i./l, po administered through pollen for 11 weeks measured everyday for 3 days followed by once a week for 11 weeks; format: functional
Bombus terrestris [25] = experiment: Contact toxicity against worker Bombus terrestris (bumblebee) assessed as mortality at 400 mg a.i./l applied on the dorsal thorax for 11 weeks measured everyday for 3 days followed by once a week for 11 weeks; format: functional
Bombus terrestris [26] = experiment: Toxicity against worker Bombus terrestris (bumblebee) assessed as reduction in reproduction at 400 mg a.i./l, po administered through pollen for 11 weeks measured once a week for 11 weeks; format: functional; set-up: scale not given: the % may be the effect or the level left
Bombus terrestris [27] = experiment: Toxicity against worker Bombus terrestris (bumblebee) assessed as reduction in reproduction at 400 mg a.i./l, po administered through sugar water for 11 weeks measured once a week for 11 weeks relative to control; format: functional, organism-based
Bombus terrestris [28] = experiment: Contact toxicity against worker Bombus terrestris (bumblebee) assessed as reduction in reproduction at 400 mg a.i./l applied on the dorsal thorax for 11 weeks measured once a week for 11 weeks relative to control; format: functional, organism-based

## C[C@@H]1[C@@H](c2ccc(Cl)cc2)SC(=O)N1C(=O)NC1CCCCC1 (relative stereo) [HEXYTHIAZOX]
Bombus terrestris [1]
  mortality at 3 µg/mL: < 25%
Bombus terrestris [2]
  mortality at 3 µg/mL: 90%
Bombus terrestris [3]
  mortality at 3 µg/mL: < 25%
Bombus terrestris [4]
  Activity: 50%
Bombus terrestris [5]
  Activity: Active
Bombus terrestris [6]
  Activity: inactive

## CC[C@H](C)[C@H]1O[C@]2(C=C[C@@H]1C)C[C@@H]1C[C@@H](C/C=C(\C)[C@@H](O[C@H]3C[C@H](OC)[C@@H](O[C@H]4C[C@H](OC)[C@@H](O)[C@H](C)O4)[C@H](C)O3)[C@@H](C)/C=C/C=C3\CO[C@@H]4[C@H](O)C(C)=C[C@@H](C(=O)O1)[C@]34O)O2.CO[C@H]1C[C@H](O[C@H]2[C@H](C)O[C@@H](O[C@@H]3/C(C)=C/C[C@@H]4C[C@@H](C[C@]5(C=C[C@H](C)[C@@H](C(C)C)O5)O4)OC(=O)[C@@H]4C=C(C)[C@@H](O)[C@H]5OC/C(=C\C=C\[C@@H]3C)[C@]54O)C[C@@H]2OC)O[C@@H](C)[C@@H]1O [ABAMECTIN]
Bombus terrestris [7]
  mortality at 18 µg/mL: 100%
Bombus terrestris [8]
  mortality at 18 µg/mL: 40%
Bombus terrestris [9]
  mortality at 18 µg/mL: 20%
Bombus terrestris [10]
  Activity: Active
Bombus terrestris [11]
  mortality at 18 µg/mL: 90%
Bombus terrestris [12]
  mortality at 18 µg/mL: 80%
Bombus terrestris [13]
  mortality at 18 µg/mL: 95%
Bombus terrestris [14]
  mortality at 18 µg/mL: 100%
Bombus terrestris [15]
  LC50: 1.17 mgAi/L
  NOAEL: 0.18 mgAi/L
Aphidius colemani
  mortality at 8.5 µg/mL: 100%
Apis mellifera [16]
  LD50: 0.009 µg
Apis mellifera [17]
  LD50: 0.002 µg
Bombus terrestris [18]
  mortality at 18 µg/mL: 60%
Bombus terrestris [19]
  mortality at 18 µg/mL: 40%
Bombus terrestris [20]
  Activity: Active
Bombus terrestris [21]
  Activity: Active

## Cc1ccc(/N=C/N(C)/C=N/c2ccc(C)cc2C)c(C)c1 [AMITRAZ]
Bombus terrestris [22]
  Activity: Active
Bombus terrestris [23]
  mortality at 400 µg/mL: 95%
Bombus terrestris [24]
  mortality at 400 µg/mL: 90%
Bombus terrestris [25]
  mortality at 400 µg/mL: < 25%
Bombus terrestris [26]
  Activity: 50%
Bombus terrestris [27]
  Activity: Active
Bombus terrestris [28]
  Activity: inactive
